Reference: patent US20040029823A1, “Antisense oligonucleotide compositions and methods for the modulation of JNK proteins” (priority 1997, published 2004)
Strand notation (5' to 3'): a small letter for the sugar, then the base; units joined by * are phosphorothioate-linked, units joined directly phosphodiester-linked; [ ] holds rarer units or linkages, { } end groups; capitals alone tell only the bases. Where a SMILES comes first, the peptide text is derived from it. The star is where a group is joined. e = 2'-O-(2-methoxyethyl) (MOE); [5mC] = 5-methylcytosine; Cbz = O=C(OCc1ccccc1)*; d = 2'-deoxy (DNA); CH2F = FC*

Assays:
Assay type in all cases: cell-based, human
JNK1 mRNA = assay: Northern assay of JNK1 mRNA expression in A549 cells; settings: for RNA % Control / RNA % Inhibition: 300 nM for 20 hours then 200 nM for 4 hours
Method: (§1) In order to evaluate the activity of potential JNK-modulating oligonucleotides, human lung carcinoma cell line A549 (American Type Culture Collection, Rockville, Md. No. ATCC CCL-185) cells or other cell lines as indicated in the Examples, were grown and treated with oligonucleotides or control solutions as detailed below. After harvesting, cellular extracts were prepared and examined for specific JNK mRNA levels or JNK protein levels (i.e., Northern or Western assays, respectively). In all cases, “% expression” refers to the amount of JNK-specific signal in an oligonucleotide-treated cell relative to an untreated cell (or a cell treated with a control solution that lacks oligonucleotide), and “% inhibition” is calculated as
100%−% Expression =% Inhibition.
Northern Assays: The mRNA expression of each JNK protein was determined by using a nucleic acid probe specifically hybridizable thereto. Nucleic acid probes specific for JNK1, JNK2 and JNK3 are described in Examples 3, 4 and 5, respectively. The probes were radiolabelled by means well known in the art (see, e.g., Short Protocols in Molecular Biology, 2nd Ed., Ausubel et al., Eds., John Wiley & Sons, New York, 1992, pages 3-11 to 2-3-44 and 4-17 to 4-18; Ruth, Chapter 6 In: Methods in Molecular Biology, Vol. 26: Protocols for Oligonucleotide Conjugates, Agrawal, ed., Humana Press Inc., Totowa, N.J., 1994, pages 167-185; and Chapter 10 In: Molecular Cloning: A Laboratory Manual, 2nd Ed., Sambrook et al., Eds., pages 10.1-10.70). The blots were stripped and reprobed with a ^32P-labeled glyceraldehyde 3-phosphate dehydrogenase (G3PDH) probe (Clontech Laboratories, Inc., Palo Alto, Calif.) in order to confirm equal loading of RNA and to allow the levels of JNK transcripts to be normalized with regard to the G3PDH signals.
A549 cells were grown in T-75 flasks until 80-90% confluent. At this time, the cells were washed twice with 10 mL of media (DMEM), followed by the addition of 5 mL of DMEM containing 20 μg/mL of LIPOFECTIN™ (i.e., 1:1 (w/w) DOTMA/DOPE, Life Technologies, Gaithersburg, Md.; DOTMA=N-[1-(2,3-dioleyoxy)propyl]-N,N,N-trimethylammonium chloride; DOPE=dioleoyl phosphatidylethanolamine). The oligonucleotides were added from a 10 μM stock solution to a final concentration of 400 nM, and the two solutions were mixed by swirling the flasks. As a control, cells were treated with LIPOFECTIN™ without oligonucleotide under the same conditions and for the same times as the oligonucleotide-treated samples. After 4 hours at 37° C., the medium was replaced with fresh DMEM containing 10% serum. The cells were allowed to recover for 18 hours. Total cellular RNA was then extracted in guanidinium, subject to gel electrophoresis and transferred to a filter according to techniques known in the art (see, e.g., Chapter 7 In: Molecular Cloning: A Laboratory Manual, 2nd Ed., Sambrook et al., Eds., pages 7.1-7.87, and Short Protocols in Molecular Biology, 2nd Ed., Ausubel et al., Eds., John Wiley & Sons, New York, 1992, pages 2-24 to 2-30 and 4-14 to 4-29). Filters were typically hybridized overnight to a probe specific for the particular JNK gene of interest in hybridization buffer (25 mM KPO4, pH 7.4; 5×SSC; 5× Denhardt's solution, 100 μg/ml Salmon sperm DNA and 50% formamide) (Alahari et al., Nucl. Acids Res., 1993, 21, 4079). This was followed by two washes with 1×SSC, 0.1% SDS and two washes with 0.25×SSC, 0.1% SDS. Hybridizing bands were visualized by exposure to X-OMAT AR film and quantitated using a PHOSPHORIMAGER™ essentially according to the manufacturer's instructions (Molecular Dynamics, Sunnyvale, Calif.)
B. JNK1-specific probes: In initial screenings of a set of oligonucleotides derived from the JNK1 sequence (Table 2) for biological activity, a cDNA clone of JNK1 (Derijard et al., Cell, 1994, 76, 1025) was radiolabeled and used as a JNK1-specific probe in Northern blots. […]

JNK1 protein = assay: Western assay of JNK1 protein levels in A549 cells; settings: 300 nM for 20 hours then 200 nM for 4 hours
Method: as §1
Western Assays: A549 cells were grown and treated with oligonucleotides as described above. Cells were lysed, and protein extracts were electrophoresed (SDS-PAGE) and transferred to nitrocellulose filters by means known in the art (see, e.g., Chapter 18 In: Molecular Cloning: A Laboratory Manual, 2nd Ed., Sambrook et al., Eds., pages 18.34, 18.47-18.54 and 18.60-18.75)). The amount of each JNK protein was determined by using a primary antibody that specifically recognizes the appropriate JNK protein. The primary antibodies specific for each JNK protein are described in the appropriate Examples. The primary antibodies were detected by means well known in the art (see, e.g., Short Protocols in Molecular Biology, 2nd Ed., Ausubel et al., Eds., John Wiley & Sons, New York, 1992, pages 10-33 to 10-35; and Chapter 18 In: Molecular Cloning: A Laboratory Manual, 2nd Ed., Sambrook et al., Eds., pages 18.1-18.75 and 18.86-18.88) and quantitated using a PHOSPHORIMAGER™ essentially according to the manufacturer's instructions (Molecular Dynamics, Sunnyvale, Calif.).
F. Western Assays: In order to assess the effect of oligonucleotides targeted to JNK1 mRNAs on JNK1 protein levels, Western assays were performed essentially as described above in Example 2, with the following exception(s) and/or modification(s). A primary antibody that specifically binds to JNK1 (catalog No. sc-474-G) was purchased from Santa Cruz Biotechnology, Inc. (Santa Cruz, Calif.; other JNK1-specific antibodies are available from StressGen Biotechnologies, Inc., Victoria, BC, Canada; and Research Diagnostics, Inc., Flanders, N.J.). In this experiment, cells were grown and treated with oligonucleotide at 300 nM for the initial 20 hours and then at 200 nM for 4 hours. At t=48 h, aliquots were removed for Northern and Western analyses, and fresh media was added to the cells. Aliquots for analysis were also taken at t=72 h. The samples from t=48 h and t=72 h were analyzed using the Northern and Western assays described above.

HUVEC = assay: Apoptosis in HUVEC (percent hypodiploid cells, flow cytometry); settings: HUVEC treated with JNK2 oligonucleotide plus the inhibitor
[1] = JNK1 mRNA time course, t=0 h after 4 hour treatment
[2] = JNK1 mRNA time course, time 272 h [sic] (t=72 h in text)
[3] = JNK1 mRNA, chemically modified oligonucleotides, dose 100 nM
[4] = JNK1 mRNA, chemically modified oligonucleotides, dose 400 nM

Compound | Normalized % Control (JNK1 mRNA; [3]) [%] | Normalized % Control (JNK1 mRNA; [4]) [%] | RNA % Control (JNK1 mRNA; JNK1 mRNA, t = 48 h) [%] | RNA % Control (JNK1 mRNA; JNK1 mRNA, t = 72 h) [%] | Protein % Control (JNK1 protein; t = 48 h) [%] | Protein % Control (JNK1 protein; t = 72 h) [%] | RNA % Inhibition (JNK1 mRNA; JNK1 mRNA, t = 72 h) | Protein % Inhibition (JNK1 protein; t = 48 h) | Protein % Inhibition (JNK1 protein; t = 72 h) [%] | RNA % Inhibition (JNK1 mRNA; JNK1 mRNA, t = 48 h) [%] | also measured
12539 (antisense CTCTCTGTAGGCCCGCTTGG; DNA, all phosphorothioate, methylation of C not given here) [compound 12539] | 56.4 | 26.7 | 6.7 | 11.7 | 44.3 | 29.2 |  |  |  |  | Normalized % Control (JNK1 mRNA; JNK1 mRNA dose response, 50 nM): 70.3%; Normalized % Control (JNK1 mRNA; JNK1 mRNA dose response, 100 nM): 51.6%; Normalized % Control (JNK1 mRNA; JNK1 mRNA dose response, 200 nM): 22.4%; Normalized % Control (JNK1 mRNA; JNK1 mRNA dose response, 400 nM): 11.1%; % INHIBITION (JNK1 mRNA; [1]): 85.9%; Normalized % Control (JNK1 mRNA; [1]): 14.1%; % INHIBITION (JNK1 mRNA; JNK1 mRNA time course, t=4 h): 94.1%; Normalized % Control (JNK1 mRNA; JNK1 mRNA time course, t=4 h): 5.9%; % INHIBITION (JNK1 mRNA; JNK1 mRNA time course, t=12 h): 88.4%; Normalized % Control (JNK1 mRNA; JNK1 mRNA time course, t=12 h): 11.6%; % INHIBITION (JNK1 mRNA; JNK1 mRNA time course, t=48 h): 79.0%; Normalized % Control (JNK1 mRNA; JNK1 mRNA time course, t=48 h): 21.0%; % INHIBITION (JNK1 mRNA; [2]): 58.5%; Normalized % Control (JNK1 mRNA; [2]): 41.5%; % EXPRESSION (JNK1 mRNA; JNK1 mRNA, A549 cells, 400 nM oligonucleotide, relative to LIPOFECTIN-only control): 9%
15345 (antisense e[5mC]*eT*e[5mC]*eT*e[5mC]*eT*eG*eT*eA*eG*eG*e[5mC]*e[5mC]*e[5mC]*eG*e[5mC]*eT*eT*eG*eG) [compound 15345] | 95.4 | 89.1 | 70.3 | 187.4 | 105.0 | 87.8 | (0.0) % | (0.0) % | 12.2 |  | 
15347 (antisense CTCTCTGTAGGCCCGCTTGG; sugars from the 5' end e5 d9 e6, [5mC] at 1, 3, 5, 16, linkages o4 s10 o5 (s phosphorothioate, o phosphodiester), methylation of C not given here) [compound 15347] | 27.1 | 11.7 | 7.9 | 8.2 | 38.8 | 28.4 | 81.8% |  |  | 92.1 | inhibition of JNK1 mRNA expression (JNK1 mRNA; chemically modified derivatives of ISIS 12539, 400 nM (Table 5)): at least 88%
15348 (antisense CTCTCTGTAGGCCCGCTTGG; sugars from the 5' end e11 d9, [5mC] at 1, 3, 5, all phosphorothioate, methylation of C not given here) [compound 15348] | 30.4 | 32.9 | 24.3 | 28.0 | 58.3 | 41.7 | 72.0% | 41.7% | 58.3 | 75.7 | 
15349 (antisense CTCTCTGTAGGCCCGCTTGG; sugars from the 5' end d9 e11, [5mC] at 12, 13, 14, 16, all phosphorothioate, methylation of C not given here) [compound 15349] | 42.5 | 35.5 | 63.1 | 52.0 | 69.5 | 56.5 | 48.0% | 30.5% | 43.5 | 36.9 | 
15350 (antisense CTCTCTGTAGGCCCGCTTGG; sugars from the 5' end d9 e11, [5mC] at 12, 13, 14, 16, linkages s9 o10 (s phosphorothioate, o phosphodiester), methylation of C not given here) [compound 15350] | 71.1 | 41.3 | 49.2 | 54.4 | 71.7 | 58.4 | 45.6% | 28.3% | 41.6 | 50.0 | 
15351 (antisense CTCTCTGTAGGCCCGCTTGG; sugars from the 5' end e11 d9, [5mC] at 1, 3, 5, linkages o10 s9 (s phosphorothioate, o phosphodiester), methylation of C not given here) [compound 15351] | 45.1 | 39.8 | 26.9 | 46.1 | 52.4 | 37.0 | 53.9% |  |  | 73.1 | 
C[C@@H]1C[C@@H]([C@H](O)CC2CC(=O)NC(=O)C2)C(=O)[C@@H](C)C1 [cyclohexamide, reference compound] |  |  |  |  |  |  |  |  |  |  | effect on JNK2 oligonucleotide-induced cell death (apoptosis) (HUVEC): no effect
COC(=O)C[C@H](NC(=O)[C@H](C)NC(=O)[C@@H](NC(=O)OCc1ccccc1)C(C)C)C(=O)CF [z-FAD.fmk, z-VAD.fmk, reference compound] (Cbz-Val-Ala-Asp(OMe)-CH2F) |  |  |  |  |  |  |  |  |  |  | effect on JNK2 oligonucleotide-induced cell death (apoptosis) (HUVEC): decreased
